In ChEMBL document CHEMBL3751682, “Synthesis, anti-inflammatory, ulcerogenic and cyclooxygenase activities of indenopyrimidine derivatives” (Bioorg Med Chem Lett, 2016):

Experiments:
[1] = Ratio of IC50 for human COX2 to IC50 for ovine COX1 by prostaglandin biosynthesis assay
[2] = tested on: Rattus norvegicus; assay: Anti-inflammatory activity in albino Wistar rat assessed as inhibition of carrageenan-induced paw edema at 50 mg/kg, po measured every one hour for 5 hrs; format: functional
[3] = tested on: Rattus norvegicus; assay: Ulcerogenicity in albino Wistar rat assessed as ulcer index at 50 mg/kg, po after 20 hrs; format: toxicity, organism-based; settings: in vivo
[4] = tested on: Rattus norvegicus; assay: Anti-inflammatory activity in albino Wistar rat assessed as inhibition of carrageenan-induced paw edema at 25 mg/kg, po measured every one hour for 5 hrs; format: functional
[5] = tested on: Rattus norvegicus; assay: Anti-inflammatory activity in albino Wistar rat assessed as inhibition of carrageenan-induced paw edema at 30 mg/kg, po measured every one hour for 5 hrs; format: functional
[6] = tested on: Rattus norvegicus; assay: Ulcerogenicity in albino Wistar rat assessed as ulcer index at 100 mg/kg, po after 20 hrs; format: toxicity, organism-based; settings: in vivo

For `Cc1ccc(-c2cc(C(F)(F)F)nn2-c2ccc(S(N)(=O)=O)cc2)cc1`, the Ratio IC50 [1] was 0.04.
Compound `Nc1nc(-c2cccc([N+](=O)[O-])c2)c2c(n1)-c1ccccc1C2=O` has an inhibition in vivo at 50 mg/kg [2] of 79.3%, a Ratio IC50 [1] of 0.7 and a UI [3] of 2.9. For the same compound, the inhibition in vivo at 25 mg/kg [4] was 76%.
Compound `Nc1nc(-c2ccc(Cl)cc2)c2c(n1)-c1ccccc1C2=O` has an inhibition in vivo at 50 mg/kg [2] of 78%, a Ratio IC50 [1] of 0.7 and a UI [3] of 3. For the same compound, the inhibition in vivo at 25 mg/kg [4] was 76%.
Compound `COc1cc(-c2nc(N)nc3c2C(=O)c2ccccc2-3)cc(OC)c1OC` has an inhibition in vivo at 50 mg/kg [2] of 78.7%, a Ratio IC50 [1] of 0.69 and a UI [3] of 2.8. It also gave an inhibition in vivo at 25 mg/kg [4] of 75.3%.
`O=C(O)Cc1ccccc1Nc1c(Cl)cccc1Cl` [DICLOFENAC] gave an inhibition in vivo at 30 mg/kg [5] of 85.3% and a UI [6] of 5.7.
For `Nc1nc(-c2ccccc2)c2c(n1)-c1ccccc1C2=O`, the inhibition in vivo at 50 mg/kg [2] was 80.7%, the UI [3] was 3 and the inhibition in vivo at 25 mg/kg [4] was 76.7%.
In the case of `Nc1nc(-c2ccc([N+](=O)[O-])cc2)c2c(n1)-c1ccccc1C2=O`, the inhibition in vivo at 50 mg/kg [2] is reported as 81.3%, the UI [3] is reported as 2.9 and the inhibition in vivo at 25 mg/kg [4] is reported as 77.3%.
Work on `Nc1nc(-c2ccc(Br)cc2)c2c(n1)-c1ccccc1C2=O` yielded an inhibition in vivo at 50 mg/kg [2] of 80%, a Ratio IC50 [1] of 0.69 and a UI [3] of 2.9. It also gave an inhibition in vivo at 25 mg/kg [4] of 76.7%.
For `COc1cccc(-c2nc(N)nc3c2C(=O)c2ccccc2-3)c1`, the inhibition in vivo at 50 mg/kg [2] was 78%, the Ratio IC50 [1] was 0.68 and the UI [3] was 2.9. For the same compound, the inhibition in vivo at 25 mg/kg [4] was 75.3%.
